In article PMC11386433 (Journal of Medicinal Chemistry, 2024):
Read-outs that look alike come from different tables or passages of the source.

Assays:
[1] = target: T1, δOR (SNAP-opioid receptor) (Homo sapiens, UniProt P41143); assay: HTRF saturation binding of fluorescent ligand to SNAP-opioid receptors on HEK293T cells; conditions: HTRF saturation curve, 1 h room temperature, nonspecific binding with naloxone 100 μM
T1 construct: host or cells: HEK293T

[2] = target: T2, μOR (SNAP-opioid receptor) (Homo sapiens, UniProt P35372); assay: as above
T2 construct: host or cells: HEK293T
T2 sequence (P35372 whole entry): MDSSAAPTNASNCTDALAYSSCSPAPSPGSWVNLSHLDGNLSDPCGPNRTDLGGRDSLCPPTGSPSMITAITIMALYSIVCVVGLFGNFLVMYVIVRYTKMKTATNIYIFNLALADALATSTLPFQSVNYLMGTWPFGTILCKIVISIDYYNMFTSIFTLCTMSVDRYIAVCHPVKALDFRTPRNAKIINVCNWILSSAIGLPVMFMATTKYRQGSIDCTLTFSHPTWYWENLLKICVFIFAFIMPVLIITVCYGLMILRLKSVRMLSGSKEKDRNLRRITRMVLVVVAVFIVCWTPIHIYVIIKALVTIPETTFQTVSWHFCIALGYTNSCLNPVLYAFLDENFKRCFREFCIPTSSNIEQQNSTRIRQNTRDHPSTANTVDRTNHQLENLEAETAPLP

[3] = target: T3, κOR (SNAP-opioid receptor) (Homo sapiens, UniProt P41145); assay: as above
T3 construct: host or cells: HEK293T
T3 sequence (P41145 whole entry): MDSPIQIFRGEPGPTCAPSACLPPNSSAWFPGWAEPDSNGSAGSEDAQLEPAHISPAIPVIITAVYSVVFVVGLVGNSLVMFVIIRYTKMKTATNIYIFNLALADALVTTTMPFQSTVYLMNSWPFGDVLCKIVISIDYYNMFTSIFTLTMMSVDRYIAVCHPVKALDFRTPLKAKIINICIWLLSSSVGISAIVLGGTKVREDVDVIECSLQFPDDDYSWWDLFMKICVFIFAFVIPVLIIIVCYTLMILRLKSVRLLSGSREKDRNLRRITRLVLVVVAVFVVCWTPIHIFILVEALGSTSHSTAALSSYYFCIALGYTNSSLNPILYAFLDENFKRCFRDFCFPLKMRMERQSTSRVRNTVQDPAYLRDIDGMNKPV

δOR [4] = target: T4, δOR (Homo sapiens, UniProt P41143); assay: cell-based; format: cell-based; set-up: host or cells: HEK293T stably expressing EA-β-arrestin-2; conditions: for Emax: HEK-293T, read-out: Emax (agonist properties); for response in agonist mode: β-arrestin-2 recruitment
T4 sequence (P41143 whole entry): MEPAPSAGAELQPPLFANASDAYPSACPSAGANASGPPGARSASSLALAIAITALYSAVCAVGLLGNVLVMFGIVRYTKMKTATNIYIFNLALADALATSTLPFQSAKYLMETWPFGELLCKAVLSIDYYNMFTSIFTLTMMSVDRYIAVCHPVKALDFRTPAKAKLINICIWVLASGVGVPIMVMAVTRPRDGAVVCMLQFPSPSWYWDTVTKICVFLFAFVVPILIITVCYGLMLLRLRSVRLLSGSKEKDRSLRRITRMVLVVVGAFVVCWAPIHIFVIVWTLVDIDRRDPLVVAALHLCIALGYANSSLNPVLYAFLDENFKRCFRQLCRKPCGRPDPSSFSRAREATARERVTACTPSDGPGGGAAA

δOR [5] = target: T4, δOR; assay: cell-based; format: cell-based; set-up: Gαqi gift from The J. David Gladstone Institutes; host or cells: HEK293T; conditions: for Emax: HEK-293T, read-out: Emax (agonist properties); for response in agonist mode: IP-One assay
human κOR = target: T5, human κOR (Homo sapiens, UniProt P41145); assay: biochemical; format: binding
T5 construct: host or cells: HEK293T (membrane preparation)
T5 sequence (P41145 whole entry): as the sequence (P41145 whole entry) above

human μOR = target: T6, human μOR (Homo sapiens, UniProt P35372); assay: biochemical; format: binding
T6 construct: host or cells: HEK293T (membrane preparation)
T6 sequence (P35372 whole entry): as the sequence (P35372 whole entry) above

δOR [6] = target: T4, δOR; format: binding; set-up: host or cells: CHO-K1; conditions: labeled with 1 μM
wild-type human δOR = target: T7, wild-type human δOR (Homo sapiens, UniProt P41143); assay: Single-molecule microscopy of CHO cells transfected with wild-type δOR; format: cell-based
T7 construct: host or cells: CHO-K1
T7 sequence (P41143 whole entry): as the sequence (P41143 whole entry) above

[7] = HTRF saturation curve, value of high uncertainty, saturation not reached
[8] = selectivity ratio of HTRF Kd values, high uncertainty

T1 sequence (P41143 whole entry): as above

| SMILES | Kd [1] [nM] | Kd [2, 7] [nM] | μ/δ [2, 8] | Kd [3, 7] [nM] | κ/δ [3, 8] | IC50 (δOR [4]) [nM] | Emax (δOR [4]) [%] | response in agonist mode (δOR [4]) | IC50 (δOR [5]) [nM] | Emax (δOR [5]) [%] | response in agonist mode (δOR [5]) | Ki (human κOR) [nM] | κ/δ (human κOR) | Ki (human μOR) [nM] | μ/δ (human μOR) | wash resistance (δOR [6]; after 20 min of medium wash out) [%] | wash resistance (δOR [6]; after 15 min of medium wash out) [%] | time after labeling at which labeled δOR molecules could still be observed diffusing on the plasma membrane (wild-type human δOR) [h] |
| --- | --- | --- | --- | --- | --- | --- | --- | --- | --- | --- | --- | --- | --- | --- | --- | --- | --- | --- |
| CN1/C(=C/C=C/C=C/C2=[N+](CCCCCC(=O)NCC(=O)NCC(=O)NCC(=O)NCC(=O)Nc3cccc4c5c([nH]c34)[C@@H]3Oc4c(O)ccc6c4[C@@]34CCN(CC3CC3)[C@H](C6)[C@]4(O)C5)c3ccc(S(=O)(=O)[O-])cc3C2(C)C)C(C)(C)c2cc(S(=O)(=O)O)ccc21 [6-Cy5, 1-(1-(((4bS,8R,8aS,14bR)-7-(cyclopropylmethyl)-1,8a-dihydroxy-5,6,7,8,8a,9,14,14b-octahydro-4,8-methanobenzofuro[2,3-a]pyrido[4,3-b]carbazol-13-yl)amino)-1,4,7,10,13-pentaoxo-3,6,9,12-tetraazaoctadecan-18-yl)-3,3-dimethyl-2-((1E,3E)-5-((E)-1,3,3-trimethyl-5-sulfoindolin-2-ylidene)penta-1,3-dien-1-yl)-3H-indol-1-ium-5-sulfonate] | 1.8 ± 0.8 | 215 ± 262 | 120 | 226 ± 131 | 126 | 33 | < 5 | did not elicit a response | 54 | < 5 | did not elicit a response | 78 | 65 | 100 | 83 | 93 ± 1 | – | – |
| CN1/C(=C/C=C/C2=[N+](CCCCCC(=O)NCC(=O)NCC(=O)NCC(=O)NCC(=O)Nc3cccc4c5c([nH]c34)[C@@H]3Oc4c(O)ccc6c4[C@@]34CCN(CC3CC3)[C@H](C6)[C@]4(O)C5)c3ccc(S(=O)(=O)[O-])cc3C2(C)C)C(C)(C)c2cc(S(=O)(=O)O)ccc21 [6-Cy3, 1-(1-(((4bS,8R,8aS,14bR)-7-(cyclopropylmethyl)-1,8a-dihydroxy-5,6,7,8,8a,9,14,14b-octahydro-4,8-methanobenzofuro[2,3-a]pyrido[4,3-b]carbazol-13-yl)amino)-1,4,7,10,13-pentaoxo-3,6,9,12-tetraazaoctadecan-18-yl)-3,3-dimethyl-2-((E)-3-((E)-1,3,3-trimethyl-5-sulfoindolin-2-ylidene)prop-1-en-1-yl)-3H-indol-1-ium-5-sulfonate] | – | – | – | – | – | 47 | < 5 | did not elicit a response | 38 | < 10 | did not elicit a response | 330 | 190 | 370 | 220 | – | 69 ± 1 | 2 to 3 |
